According to PubChem BioAssay (NCI):
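Interpolation was linear, between the two tested concentrations surrounding the appropriate level; five concentrations were tested over 48 hours in 96-well plates. Abbreviation: GI50, concentration required for 50% inhibition of growth. Definition used: TGI = concentration required for complete inhibition of growth.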 Peptide text beside a SMILES is read from it. * marks the point of attachment. Cbz = O=C(OCc1ccccc1)*

Columns and labels:
Test in all cases: inhibition of tumour cell growth, NCI panel, 48 h
[1] = system: NCI-H460 lung
[2] = system: MALME-3M melanoma
[3] = system: SF-268 CNS
[4] = system: NCI-H522 lung
[5] = system: SK-MEL-5 melanoma
[6] = system: 786-0 renal
[7] = system: DU-145 prostate
[8] = system: BT-549 breast
[9] = system: MDA-N
[10] = system: HCT-15 colon
[11] = system: CAKI-1 renal
[12] = system: UO-31 renal
[13] = system: SW-620 colon
[14] = system: PC-3 prostate
[15] = system: KM12 colon
[16] = system: HCC-2998 colon
[17] = system: SR leukemia

| Structure (SMILES) | TGI [1] [µM] | TGI [2] [µM] | TGI [3] [µM] | TGI [4] [µM] | TGI [5] [µM] | TGI [6] [µM] | TGI [7] [µM] | TGI [8] [µM] | TGI [9] [µM] | TGI [10] [µM] | TGI [11] [µM] | TGI [12] [µM] | TGI [13] [µM] | TGI [14] [µM] | TGI [15] [µM] | TGI [16] [µM] | TGI [17] [µM] | GI50 [12] [µM] |
| --- | --- | --- | --- | --- | --- | --- | --- | --- | --- | --- | --- | --- | --- | --- | --- | --- | --- | --- |
| O=c1oc2ccccc2c(O)c1Cc1ccccc1Cc1c(O)c2ccccc2oc1=O | > 100 | > 100 | > 100 | > 100 | > 100 | > 100 | > 100 | > 100 | > 100 | > 100 | > 100 | > 100 | > 100 | > 100 | > 100 |  |  |  |
| CNc1cc(Cl)ccc1C(=O)N1CCC[C@H]1CO |  | > 100 | > 100 | > 100 | > 100 | > 100 | > 100 | > 100 | > 100 | > 100 | > 100 | > 100 | > 100 | > 100 | > 100 |  |  |  |
| COc1c(OC)c(OC)c2c(=O)c(OC)c(-c3ccc4c(c3)OCO4)oc2c1OC | > 100 | > 100 | > 100 | > 100 | > 100 | > 100 | > 100 | > 100 | > 100 | > 100 | > 100 | > 100 | > 100 | > 100 | > 100 | > 100 |  |  |
| CCOC1Oc2ccccc2-c2nc(N)ncc21 (stereo not drawn) | > 100 |  | > 100 | 72.8 | > 100 | > 100 | > 100 | > 100 | > 100 | > 100 | > 100 | > 100 | > 100 | > 100 | > 100 |  | 61.2 |  |
| c1cc2nnc1SCCSCCCSCCS2 | > 100 | > 100 | > 100 | > 100 | > 100 | > 100 | > 100 |  | > 100 | > 100 | > 100 | > 100 | > 100 | > 100 | > 100 | > 100 | > 100 |  |
| CCCCCCCCCc1cc(=O)c2c(O)cc(O)cc2o1 | 50.6 | 32 | 14.5 | 31.5 | 37.6 | 42.8 | 36.7 |  | > 100 | 36 | > 100 | 32.6 | 78.1 | 32.1 | 21.3 | 35.8 | 32.7 |  |
| O=S(=O)(N1CCCCN(S(=O)(=O)C(F)(F)F)CCCN(S(=O)(=O)C(F)(F)F)CCCCN(S(=O)(=O)C(F)(F)F)CCCN(S(=O)(=O)C(F)(F)F)CCCCN(S(=O)(=O)C(F)(F)F)CCCN(S(=O)(=O)C(F)(F)F)CCCCN(S(=O)(=O)C(F)(F)F)CCC1)C(F)(F)F | > 31.6 | > 31.6 | > 31.6 | > 31.6 | > 31.6 | > 100 | > 31.6 | > 31.6 | > 31.6 | > 31.6 | > 31.6 | > 31.6 | > 31.6 | > 31.6 | > 31.6 | > 31.6 |  |  |
| N#Cc1n[nH]n(-c2ccccc2)c1=O |  | > 100 | > 100 | > 100 | > 100 | > 100 | > 100 | > 100 | > 100 | > 100 | > 100 | > 100 | > 100 | > 100 | > 100 | > 100 |  |  |
| O=C(O)c1ccc2[nH]c(=O)oc2c1 | > 100 | > 100 | > 100 |  |  | > 100 | > 100 | > 100 | > 100 | > 100 | > 100 |  | > 100 | > 100 | > 100 |  | > 100 |  |
| O=c1[nH]nc(Cc2ccc(Cl)cc2)n1CCO | > 100 | > 100 | > 100 | > 100 | > 100 | > 100 | > 100 | > 100 | > 100 | > 100 | > 100 | > 100 | > 100 | > 100 | > 100 | > 100 |  |  |
| O=[N+]([O-])c1ccc2nc(/C=C(\O)c3ccccc3)c(NC34CC5CC(CC(C5)C3)C4)nc2c1 | > 10 | > 10 | > 10 | > 10 | > 10 | > 10 | > 10 |  | > 10 | > 10 | > 10 | > 10 | > 10 | > 10 | > 10 | > 10 |  |  |
| O=C(Cn1c2c(c3ccccc31)CCCC2)N1CCOCC1 | > 100 | > 100 | > 100 |  | > 100 | > 100 |  | > 100 | > 100 | > 100 | > 100 | > 100 | > 100 | > 100 |  | > 100 |  |  |
| Nc1nc(Cl)cc(NCC2(CO)CC=CC2)n1 | > 100 | > 100 | > 100 | > 100 | > 100 | > 100 | > 100 | > 100 | > 100 | > 100 | > 100 | > 100 | > 100 | > 100 | > 100 | > 100 |  |  |
| CN1CCN(c2ccc3nc(-c4ccc5nc(CCCc6ccc(N(CCCl)CCCl)cc6)[nH]c5c4)[nH]c3c2)CC1 | > 100 | > 100 | > 100 | > 100 | > 100 | > 100 | > 100 |  | > 100 | > 100 | > 100 | > 100 | > 100 | > 100 | > 100 | > 100 | > 100 |  |
| CN1C(CC(O)c2ccccc2)CCCC1CC(O)(c1ccccc1)c1ccccc1 (stereo not drawn) |  | 33.8 | 43.7 | 42.3 | 31 | 29.1 | 45.6 |  | 33.5 | 34.4 | > 100 | 20.8 | 39 | 34.7 | 36.6 | 37.8 | 56.6 |  |
| CCOC(=O)c1nc2ccc(C(F)(F)F)cc2nc1NCc1ccc(F)cc1 | 75.4 | > 100 | 53.9 | 88.9 |  | > 100 | > 100 |  | > 100 | > 100 | > 100 | > 100 | > 100 | > 100 | > 100 | 78.3 | > 100 |  |
| O=C1/C(=C\c2cccc(Oc3ccccc3)c2)SC(c2ccccc2)N1Cc1ccccc1 (stereo not drawn) | > 100 | 57.7 | > 100 | 46.1 | 28 | > 100 | > 100 | 89 | 52.3 | > 100 | > 100 | > 100 | > 100 |  | 83.8 | > 100 | 56.8 |  |
| OCCCN=C1N=C(Cl)/C(=C\c2ccccc2)N1 |  | > 100 | > 100 | > 100 | > 100 | > 100 | > 100 |  | > 100 | > 100 | > 100 | > 100 | > 100 |  | > 100 | > 100 | > 100 |  |
| O=C1C2CCCCC2C(=O)N1n1c(Cc2ccccc2)n[nH]c1=O (stereo not drawn) | > 100 | > 100 | > 100 | > 100 | > 100 | > 100 |  | > 100 | > 100 | > 100 | > 100 | > 100 | > 100 | > 100 | > 100 | > 100 | > 100 |  |
| CCC12CN(C(=O)OC)C3C(Br)C1CCC(=O)C32 (stereo not drawn) | > 100 | > 100 | > 100 | > 100 | > 100 | > 100 | > 100 |  | > 100 | > 100 | > 100 | > 100 | > 100 | > 100 | > 100 | > 100 | > 100 |  |
| COc1ccc(/C=C2/C(=O)N(/C=C3\C(=O)Oc4ccccc4C3=O)C(=NC(C)=O)N2C)cc1OC | > 100 | > 100 | > 100 | > 100 | > 100 | > 100 | > 100 |  | > 100 | > 100 | > 100 | > 100 | > 100 | > 100 | > 100 | > 100 | > 100 | > 100 |
| O=C(Cc1ccccc1)N/N=C(/c1nc2ccc([N+](=O)[O-])cc2[nH]c1=O)C(O)c1ccco1 (stereo not drawn) | > 100 | > 100 | > 100 | > 100 | > 100 | > 100 |  |  |  | > 100 | > 100 | > 100 | > 100 |  | > 100 | > 100 | > 100 |  |
| O=C1CCCc2cc3c(cc21)CC1(C3)Cc2cc3c(cc2C1)C(=O)CCC3 | > 44.2 | > 62.6 | > 100 | 6.15 | 7.09 | 64.8 | 19 | 90.2 |  | > 59.6 | > 88 | 81.4 | > 100 | > 100 | 7.85 | 10.4 |  |  |
| O=C(O)C(C(F)(F)F)C(F)(F)F (tested in a mixture with another compound) | > 100 | > 100 | > 100 | > 100 | > 100 | > 100 | > 100 | > 100 | > 100 | > 100 | > 100 | > 100 | > 100 | > 100 | > 100 |  | > 100 |  |
| C#C[C@@H](OC(=O)c1ccc([N+](=O)[O-])cc1)[C@@H]1C[C@H]2O[C@@H]([C@H](C/C=C/CC)OC(=O)c3ccc([N+](=O)[O-])cc3)C[C@H]2O1 | > 100 | > 100 | > 100 | > 100 | > 100 | > 100 | > 100 | > 100 | > 100 | > 100 | > 100 | > 100 | > 100 | > 100 | > 100 | > 100 |  |  |
| CN(C)c1cccc2c(S(=O)(=O)NCCCNCCN)cccc12 | > 100 | > 100 | > 100 | > 100 | 35.7 | > 100 | > 100 |  | 69.6 | > 100 | > 100 | > 100 | > 100 | > 100 | > 100 | 62.8 | 39.1 |  |
| Cc1ccc(C2SCc3nc4ccccc4n32)cc1 (stereo not drawn) | > 100 | 73.6 | > 100 | 85.6 | 5.28 | > 100 | > 100 |  |  |  | 49.7 | 22.6 | > 100 | 21.2 | 20.6 | > 100 |  |  |
| N#CC(C(=S)Nc1ccccc1)=C1Nc2ccccc2N1 | > 10 | > 10 | > 10 | > 10 | > 10 | > 10 |  |  |  | > 10 | > 10 | > 10 | > 10 |  | > 10 | > 10 | > 10 |  |
| CCOC(=O)CCC(NC(=O)CNC(=O)CNC(=O)C(CCC(=O)OCC)NC(=O)C(CCC(=O)OCC)NC(=O)C(CCC(=O)OCC)NC(=O)OCc1ccccc1)C(=O)NC(CCC(=O)OCC)C(=O)NC(CCC(=O)OCC)C(=O)OCC (stereo not drawn) (Cbz-E(OEt)E(OEt)E(OEt)GGE(OEt)E(OEt)E(OEt)-OEt; configuration not given here) | > 75 | > 75 | > 75 | > 75 | > 75 | > 75 | > 75 |  | > 75 | > 75 | > 75 | > 75 | > 75 | > 75 | > 75 |  | > 75 |  |
